According to patent EP2926811A1, “ARTEMETHER-CONTAINING PHARMACEUTICAL COMPOSITION, PREPARATION, AND USE THEREOF” (Kunming Pharmaceutical Corp., priority 2012, dated 2014):
Where two headings read alike, the source gives them in different places.

Tests used:
Format in all cases: cell-based
[1] = tested on: K562 cells; assay: modified MTT method, proliferation of K562 cells; conditions: Homo sapiens, read-out: IC50 on the growth of K562 cells
Protocol: (§1) Five test concentrations 2, 10, 50, 250 and 500 µM were set for each of five derivatives of artemisinin, artemether drug substance, artemisinin, dihydroartemisinin, artesunate were dissolved with dimethyl sulfoxide (DMSO), while the lyophilized powder of artemether was dissolved with normal saline (N.S.), followed by addition of a certain amount of RPMI 1640 complete culture solution to formulate a high-concentration solution, and each of the low-concentration solutions was formulated by proportionate dilution from the high-concentration solution.
(§2) The concentrations of DMSO contained in the solutions at the two relatively high concentrations 500 and 250 µM for the artemether drug substance, artemisinin, dihydroartemisinin, artesunate, used as solvent controls, were formulated with […] culture solution, at which time the test concentrations of DMSO were 1% and 0.5%. The concentrations of the excipients contained in the solutions at the two relatively high concentrations 500 and 250 µM for the preparation of lyophilized powder of artemether were used as solvent controls.
(§3) The positive control was an anti-cancer drug adriamycin (ADM), which was set at three test concentrations (final concentrations) of 0.1, 1 and 10 µg/ml. To ADM stock solution (1 mg/ml) a certain amount of PRMI 1640 complete culture solution was added, to formulate a high-concentration solution, and each of the low-concentration solutions were formulated by proportionate dilutions from the high-concentration solution.
(§4) HL-60: (human promyelocytic leukemia cell line); K562 (human chronic myelocytic leukemia cell line); HT-29 (human colon cancer cell line); PC-3 (human prostate cancer cell line); A549 (human non-small cell lung cancer cell line); MKN-28 (human gastric cancer cell line); Hep2 (human laryngeal cancer cell line), all of which were purchased from Cell Bank of Shanghai Institutes for Biological Sciences, the Chinese Academy of Sciences.
(§5) Influence of the five test samples on the proliferation of 7 human tumor cell lines was determined via a modified MTT method.
(§6) Cells in logarithmic growth phase were taken, adjusted to a certain concentration and then added into a 96 well culture plate. After culture of adherent cells for a period until adherence, the test samples were added; and for suspension cells, the test samples were added after inoculation. 5 test concentrations 2, 10, 50, 250 and 500 µM were set, with 3 parallel wells for each concentration, 10 µl/well; the solvent controls were 0.5% and 1% of isovolumetric DMSO, and the positive controls was ADM at 3 concentrations 0.1, 1 and 10 µg/ml. The samples were loaded followed by culture for a period of time in an incubator at 37°C, 5% CO2, followed by addition of MTT (5 mg/ml) at 20 µl/well, and continued to be cultured for a period of time and added with a three-combined solution [10% SDS - 5% isobutanol - 0.012 mol/L HCl (W/V/V)]. After dissolving in uniformity, it was continued to be placed in the incubator at 37°C, 5% CO2 for a period of time, and the OD value of each well was determined under a wavelength of 570 nm with a microplate reader, according to which the results were calculated.
(§7) The cellular proliferation inhibition rate was calculated in accordance with the following equation: Inhibition rate (%) = (OD valuecontrol well-OD valuesample well)/OD valuecontrol well × 100% [formula]
(§8) When the inhibition rate of DMSO on cells was more than 15%, calculation was carried out using the following equation: Inhibition rate (%) = (OD valuesolvent group-OD valueadministered well)/OD valuesolvent group × 100% [formula]
(§9) The inhibition rate was calculated by using Microsoft Excel 2003, and median inhibitory concentration IC50 was calculated with a LOGIT method, which was used as an indicator for judging the inhibitory capability.

[2] = tested on: HL-60 cells; assay: modified MTT method, proliferation of HL-60 cells; conditions: Homo sapiens, read-out: IC50 on the growth of HL-60 cells
Protocol: as §1, §2, §3, §4, §5, §6, §7, §8, §9

[3] = tested on: A549 cells; assay: modified MTT method, proliferation of A549 cells; conditions: Homo sapiens, read-out: IC50 on the growth of A549 cells
Protocol: as §1, §2, §3, §4, §5, §6, §7, §8, §9

[4] = tested on: HT-29 cells; assay: modified MTT method, proliferation of HT-29 cells; conditions: Homo sapiens
Protocol: as §1, §2, §3, §4, §5, §6, §7, §8, §9
(§10) According to the results of preliminary screening, further experiments were adjusted such that more sensitive cell lines were screened out. […]

[5] = tested on: PC-3 cells; assay: modified MTT method, proliferation of PC-3 cells; conditions: Homo sapiens, read-out: IC50 on the growth of PC-3 cells
Protocol: as §1, §2, §3, §4, §5, §6, §7, §8, §9

[6] = tested on: MKN-28 cells; assay: modified MTT method, proliferation of MKN-28 cells; conditions: Homo sapiens, MKN-28, 72 h, secondary screening
Protocol: as §1, §2, §3, §4, §5, §6, §7, §8, §9, §10

[7] = tested on: Hep2 cells; assay: modified MTT method, proliferation of Hep2 cells; conditions: Homo sapiens, HEp-2, 72 h, secondary screening
Protocol: as §1, §2, §3, §4, §5, §6, §7, §8, §9, §10

[8] = tested on: 7 human tumor cell lines; assay: modified MTT method, summary over the panel of human tumor cell lines; conditions: HL-60, K562, A549, HT-29, PC-3, MKN-28, Hep2
Excerpt: as §4, §5
Cells in logarithmic growth phase were taken, adjusted to a certain concentration and then added into a 96 well culture plate. After culture of adherent cells for a period until adherence, the test samples were added; and for suspension cells, the test samples were added after inoculation. […] After dissolving in uniformity, it was continued to be placed in the incubator at 37°C, 5% CO2 for a period of time, and the OD value of each well was determined under a wavelength of 570 nm with a microplate reader, according to which the results were calculated.
as §9

C[C@@H]1CC[C@H]2[C@@H](C)C(=O)O[C@@H]3O[C@@]4(C)CC[C@@H]1[C@]32OO4 [artemisinin]
IC50 ([1]; K562, 24 h, Batch 1, 24 h): > 1000 µM
IC50 ([1]; K562, 24 h, Batch 2, 24 h): > 1000 µM
IC50 ([1]; K562, 24 h, Batch 3, 24 h): > 1000 µM
IC50 ([1]; K562, 48 h, Batch 1, 48 h): > 1000 µM
IC50 ([1]; K562, 48 h, Batch 2, 48 h): > 1000 µM
IC50 ([1]; K562, 48 h, Batch 3, 48 h): 991 µM
IC50 ([1]; K562, 72 h, Batch 1, 72 h): > 1000 µM
IC50 ([1]; K562, 72 h, Batch 2, 72 h): 518 µM
IC50 ([1]; K562, 72 h, Batch 3, 72 h): 449 µM
IC50 ([2]; HL-60, 24 h, Batch 1, 24 h): > 1000 µM
IC50 ([2]; HL-60, 24 h, Batch 2, 24 h): 750 µM
IC50 ([2]; HL-60, 48 h, Batch 1, 48 h): > 1000 µM
IC50 ([2]; HL-60, 48 h, Batch 2, 48 h): 331 µM
IC50 ([2]; HL-60, 72 h, Batch 1, 72 h): > 1000 µM
IC50 ([2]; HL-60, 72 h, Batch 2, 72 h): 577 µM
IC50 ([3]; A549, 24 h, Batch 1, 24 h): > 1000 µM
IC50 ([3]; A549, 24 h, Batch 2, 24 h): 421 µM
IC50 ([3]; A549, 48 h, Batch 1, 48 h): > 1000 µM
IC50 ([3]; A549, 48 h, Batch 2, 48 h): > 1000 µM
IC50 ([3]; A549, 72 h, Batch 1, 72 h): > 1000 µM
IC50 ([3]; A549, 72 h, Batch 2, 72 h): > 1000 µM
IC50 ([4]; HT-29, 24 h, preliminary screening, Batch 1, 24 h, read-out: IC50 on the growth of HT-29 cells): > 1000 µM
IC50 ([4]; HT-29, 24 h, preliminary screening, Batch 2, 24 h, read-out: IC50 on the growth of HT-29 cells): > 1000 µM
IC50 ([4]; HT-29, 48 h, preliminary screening, Batch 1, 48 h, read-out: IC50 on the growth of HT-29 cells): > 1000 µM
IC50 ([4]; HT-29, 48 h, preliminary screening, Batch 2, 48 h, read-out: IC50 on the growth of HT-29 cells): > 1000 µM
IC50 ([4]; HT-29, 72 h, preliminary screening, Batch 1, 72 h, read-out: IC50 on the growth of HT-29 cells): > 1000 µM
IC50 ([4]; HT-29, 72 h, preliminary screening, Batch 2, 72 h, read-out: IC50 on the growth of HT-29 cells): > 1000 µM
IC50 ([4]; HT-29, 72 h, secondary screening, 72 h, Batch 1, read-out: IC50 on the growth of HT-29 cells (72 h)): 2350 µM
IC50 ([4]; HT-29, 72 h, secondary screening, 72 h, Batch 2, read-out: IC50 on the growth of HT-29 cells (72 h)): 773 µM
IC50 ([4]; HT-29, 72 h, secondary screening, 72 h, Batch 3, read-out: IC50 on the growth of HT-29 cells (72 h)): 437 µM
IC50 ([4]; HT-29, 72 h, secondary screening, 72 h, average, read-out: IC50 on the growth of HT-29 cells (72 h)): 545 µM
IC50 ([5]; PC-3, 24 h, Batch 1, 24 h): > 1000 µM
IC50 ([5]; PC-3, 24 h, Batch 2, 24 h): > 1000 µM
IC50 ([5]; PC-3, 48 h, Batch 1, 48 h): > 1000 µM
IC50 ([5]; PC-3, 48 h, Batch 2, 48 h): > 1000 µM
IC50 ([5]; PC-3, 72 h, Batch 1, 72 h): > 1000 µM
IC50 ([5]; PC-3, 72 h, Batch 2, 72 h): > 1000 µM
IC50 ([6]; Average, read-out: IC50 on the growth of MKN-28 cells (72 h)): 970 µM
IC50 ([6]; Batch 1, read-out: IC50 on the growth of MKN-28 cells (72 h)): 588 µM
IC50 ([6]; Batch 2, read-out: IC50 on the growth of MKN-28 cells (72 h)): 1440 µM
IC50 ([6]; Batch 3, read-out: IC50 on the growth of MKN-28 cells (72 h)): 1610 µM
IC50 ([7]; Batch 1, read-out: IC50 on the growth of Hep2 cells (72 h)): 350 µM
IC50 ([7]; Batch 2, read-out: IC50 on the growth of Hep2 cells (72 h)): 271 µM
IC50 ([7]; Batch 3, read-out: IC50 on the growth of Hep2 cells (72 h)): > 1000 µM
IC50 ([7]; average, read-out: IC50 on the growth of Hep2 cells (72 h)): 952 µM
inhibitory effect on the 7 human tumor cell lines in vitro [8]: no apparent inhibitory effect
